Values after ≈ are worked out from the molar mass of the structure shown. Values joined by “and” are separate entries in the source; they are usually repeats but may differ in a detail not shown here. Equal entries are not always repeated. Where two headings read alike, the source gives them in different places. Where only a bound is given, the exact number is not on record here.

Data set [1] has as its system S. aureus (ATCC 29213). Description: Minimum bactericidal concentration (MBC) assay, S. aureus. Type of data set: cell-based. Conditions: Staphylococcus aureus, S. aureus. On the procedure:
(§1) (f) Determination of MBC: MBC was determined by sampling all the macroscopically clear wells. Before sampling, the wells were gently mixed by flushing them with a pipette, and a 5 μL was removed and placed on an agar plate suitable for the growth of the microbe being tested. The agar plate was divided into three parts to test three trials of a single concentration. The sample was allowed to be absorbed into the agar for ˜30 minutes. The plates were then incubated for 24 hours at 37° C. After incubation, the plates were examined to determine the compound concentration at which 99.9% killing was achieved.

A further data set has as its system MRSA (ATCC 43300). Description: Minimum bactericidal concentration (MBC) assay, MRSA. Conditions: Staphylococcus aureus, MRSA. Type of data set: cell-based. As to the method: as §1
Data set [2] has as its system E. faecalis (ATCC 29212). The experiment in a line: Minimum bactericidal concentration (MBC) assay, E. faecalis. Type of data set: cell-based, Enterococcus faecalis. Conditions: for MBC: Enterococcus faecalis, ATCC29212. As to the method: as §1
The test system of a further data set is VREF (ATCC 51299). The experiment in a line: Minimum bactericidal concentration (MBC) assay, VREF. Conditions: VREF; for MBC: Enterococcus faecalis, ATCC51299, read-out: MBC (bactericidal activity). Type of data set: cell-based, Enterococcus faecalis. On the procedure: as §1
Another data set can be described thus: Solubility in DMSO. Type of data set: physicochemical.
Data set [3] has as its system gram positive and negative bacteria. The experiment in a line: Antibacterial testing against gram positive and negative bacteria. Type of data set: cell-based. As to the method: In addition to the harmaline dimers compounds, other bicyclic indole compounds (203, 233, 476/6 and 504/6,) were also tested against gram positive and negative bacteria. Particularly, the indole ethyl urea molecules 203, 233 and the tryptamide dimer molecules 476/6, 504/6, as shown below, were tested.

Data set [4] deals with engineered Salmonella typhimurium strain (umuC, β-galactosidase). Conditions: without S9 activation.
Excerpt: The EBPI UMU-ChromoTest™ assay is used for the detection and quantification of genotoxicity of compounds and is based on the International Organization for Standardization protocol ISO 13829. The UMU-ChromoTest™ assay utilizes a native bacterial mechanism for the detection of compound genotoxicity. The bacteria used for the assay is an engineered Salmonella typhimurium strain developed to include a gene coding for the β-galactosidase (β-gal) enzyme tethered to the umuC, a damage response gene. DNA damage activates the SOS system to transcribe β-gal proportional to the level of SOS induction. The UMU-ChromoTest™ bacterial strain has modifications to increase sensitivity to genotoxins with (a) increased sensitivity for even limited damage, (b) modified outer membrane of the cell to increase permeability to exogenous materials, and (c) production of a color change on addition to chromogenic substrate (ONPG), which is a quantitative measure of genotoxic damage to bacterial DNA.
Rehydration of Dried Bacteria and Culture Growth: The bacteria were rehydrated and incubated at 37° C. for 16-18 hours. OD600 of the overnight culture should be 0.5 or at least above 0.1 at 600 nm.
Sample Preparation and Plate Setup: The dimer compounds were dissolved in DMSO. All dilution and controls were made in the solvent of 10% DMSO in sterile 0.85% saline. The pH of the compounds was adjusted to 7.0±0.2 before incubation with bacteria to facilitate bacterial growth and prevent degradation of ONPG later in the assay. The solutions of hydrochloric acid and sodium hydroxide were used to adjust pH with minimal addition volumes to prevent excessive sample dilution. Six samples were run at 4 dilutions at a time.
Preliminary Dilution of Bacteria: The overnight bacterial culture was diluted to 50% by performing a reinoculation with 5 mL of overnight growth and 5 mL of fresh Growth media. The reinoculated bacteria was inoculated for 1.5 hours at 37° C. The OD600 should be approximately 80% of the reading from overnight growth or slightly higher.
Preparation of Plate A: Distilled water (180 μL) was added to all wells, except for rows A to F, columns 1 to 3 and row H, columns 1 to 6. Rows A to F are used for 6 compounds per plate. The test compounds (360 μL) were added to the first three wells (three replicates) of the same microplate, such that wells 1-3 were a triplicate set of the highest concertation of test compound (360 μL). Wells 4-12 each contained 180 μL of distilled water. For dilution, half of the contents (180 μL) from wells 1-3 was transferred to wells 4-6 which makes a second triplicate set. For a third dilution, half of the contents from wells 4-6 were transferred to 7-9, and for the fourth triplicate set, half of the contents from wells 7-9 was transferred to 10-12. […]
The test system of data set [5] is MRSA: S. aureus resistant to methicillin and oxacillin (ATCC 43300). Description: Broth microdilution MIC assay, MRSA. Conditions: Staphylococcus aureus, ATCC43300|MRSA, read-out: MIC (bacterial growth inhibition). On the technique in general: Broth dilution looks for growth in wells or tubes with falling amounts of substance.
Description: (§2) The concentration of compound required to visibly stop the growth of bacteria is known as minimum inhibitory concentration (MIC). Different concentrations of the compounds are tested for the exact same number of bacteria, and the growth is monitored with time.
(§3) Bacterial strains were purchased from the American Type Culture Collection (ATCC) for the studies.
(§4) The MIC assay procedure follows the guidelines set by the Clinical Laboratory Sciences Institute (CLSI).
(§5) To do this, bacteria were transferred from pure agar culture, aseptically transferred in 5 mL of Cation-Adjusted Mueller-Hinton Broth (CAMHB). The broth was incubated overnight at 35° C. to stationary phase to achieve a turbidity suspension. A spectrophotometer (SpectraMax ID5) was used to measure the turbidity (optical density—OD at 625 nm). The inoculum was prepared by adjusting the turbidity of overnight culture to 0.5 McFarland, which is equal to the defined number of bacteria 1×10^8 CFU/ml.
(§6) (b) Compound Dilution: All compounds used in the study were dissolved in sterile ultra-pure DMSO (VWR International, PA, USA) and maintained at −80° C. Stock solution of the compound was freshly prepared the day of use or is prepared from a frozen stock solution stored at −80° C. […] The compound solution was prepared at a desired concentration in DMSO, and 1/10 dilution was performed in a sterile CAMHB medium. This 10-fold dilution of stock solution was used for a 2-fold serial dilution in a 96-well plate to observe an inhibitory effect of the compound on bacterial growth. 100 μL of diluted drug solution was transferred to a first column of the 96-well plate. 50 μL of sterile CAMHB was transferred to each well from well 2 to well 12. Next, 50 μL was removed from well 1 and added to well 2. The contents from well 2 were mixed by pipetting up and down. Next, 50 µL were removed from well 2 and added to well 3. This process was continued till well 11 is reached. 50 μL was discarded from the well 11. Each compound concentration was tested in triplicate.
(§7) (c) Inoculation of 96-well plate: The same number of bacteria (1×10^5 CFU/mL) were prepared after 150-fold dilution of 0.5 McFarland inoculum and used to add in the wells of different drug concentrations. 50 μL of working inoculum was carefully added to each well, except the sterility well 12. Mixing is performed by gently flushing the inoculum in and out of the pipette tip four or five times, avoiding splashing and bubble formation.
(§8) (d) Incubation: Plates were incubated at 35° C. for 24 hours without shaking or agitation.
(§9) (e) Determination of MIC: After 18-24 hours of incubation, the plates were read for MIC. SpectraMax iD5 microplate reader was used to measure turbidity at different time points. Turbidity (OD) increases as the bacteria grow over time.
In data set [6] the test system is VREF: E. faecalis resistant to vancomycin (ATCC 51299). The experiment in a line: Broth microdilution MIC assay, VREF. Conditions: Enterococcus faecalis.
Description: as §2, §3, §4, §5, §6, §7, §8, §9
The next data set relates to E. coli (ATCC 25922). Description: Broth microdilution MIC assay, E. coli. Conditions: E. coli.
The subject of data set [7] is S. aureus (ATCC 29213). The experiment in a line: Broth microdilution MIC assay, S. aureus. Conditions: for MIC: Staphylococcus aureus, ATCC29213, read-out: MIC (bacterial growth inhibition), S. aureus; for higher efficacy than harmaline: antibacterial efficacy versus harmaline; for higher antibacterial activity than harmaline dimer without a substitution (GZ440/6): versus GZ440/6.
Description: as §2, §3, §4, §5, §6, §7, §8, §9

The test system of data set [8] is E. faecalis (ATCC 29212). Description: Broth microdilution MIC assay, E. faecalis. Conditions: Enterococcus faecalis, ATCC29212, read-out: MIC (bacterial growth inhibition).
Description: as §2, §3, §4, §5, §6, §7, §8, §9
For data set [9], the system named is P. aeruginosa (ATCC 10145). The experiment in a line: Broth microdilution MIC assay, P. aeruginosa.
Description: as §2, §3, §4, §5
(b) Compound Dilution: All compounds used in the study were dissolved in sterile ultra-pure DMSO (VWR International, PA, USA) and maintained at −80° C. […]
(e) Determination of MIC: After 18-24 hours of incubation, the plates were read for MIC. SpectraMax iD5 microplate reader was used to measure turbidity at different time points. […]
For data set [10], the system named is Candida albicans (ATCC 18804). Description: Antifungal broth microdilution MIC assay. Type of data set: cell-based. Conditions: Candida albicans, ATCC18804, C. albicans, read-out: MIC (antifungal growth inhibition). On the procedure:
Synthesized compounds were tested for antifungal activity towards the fungus strain, Candida albicans. […] Different concentrations of the compounds were tested for the exact same number of fungi, and the growth is monitored with time. MIC was determined by using the broth microdilution assay. Fungus strain, C. albicans was purchased from ATCC (ID: 18804) for the studies. […] This solution was used to make a working solution by preparing a 1:50 dilution, followed by a 1:20 dilution, with RPMI 1640 medium to obtain 2× test inoculum. The 2× inoculum is diluted 1:1 to achieve the final inoculum size (0.5×10^3 to 2.5×10^3 cells per mL). RPMI 1640 medium was used with L-glutamine and phenol red as a pH indicator but without bicarbonate and a glucose concentration of 0.2%. […] All plates were then read visually under normal laboratory lighting using a mirror viewer. Wells were scored for the growth compared to that of the drug free control well. Plates were read at 530 nm with subtraction of the blank from the reading of each well. Turbidity (OD) increases as the fungus grows over time.

For data set [11], the system named is SARS-CoV-2 isolate USA-WA1/2020 in Vero-E6 cells. The experiment in a line: Virus plaque formation assay. Type of data set: cell-based.
In the next data set the test system is SARS-CoV-2. The experiment in a line: RT-PCR quantitation of viral copy number. Type of data set: cell-based. Conditions: 120 hours after infection.
For a further data set, the system named is Vero-E6 cells. Description: CytoTox 96 Nonradioactive Cytotoxicity Assay (LDH release). (In general: LDH in the medium is a marker of cell lysis.)
[12] abbreviates: ATCC29213, 24 h, read-out: MBC (kills bacteria).
Where [13] appears, read: ATCC29213, read-out: MBC (bactericidal activity).
The mark [14] stands for this setting: ATCC51299, 24 h, read-out: MIC (bacterial growth inhibition).
The mark [15] stands for this setting: ATCC51299, 48 h, read-out: MIC (bacterial growth inhibition).
The mark [16] stands for this setting: ATCC51299, read-out: MIC (bacterial growth inhibition).

Description for E. coli (ATCC 25922): as §2, §3, §4, §5, §6, §7, §8, §9

As for `COc1ccc2c3c([nH]c2c1)C(CC(CC1=NCCc2c1[nH]c1cc(OC)ccc21)c1c[nH]cn1)=NCC3` [1,1′-(2-(1H-imidazol-4-yl)propane-1,3-diyl)bis(7-methoxy-4,9-dihydro-3Hpyrido[3,4-b]indole)], the MBC (usually the lowest tested concentration that kills the bacteria rather than only halting them) in the data set on S. aureus (ATCC 29213) [1] (setting [12]) is 101 µg/mL; in the data set with S. aureus (ATCC 29213) [1] (setting [13]), 200 µM; in the data set with MRSA (ATCC 43300) (read-out: MBC), 63.3 µg/mL; in the data set with MRSA (ATCC 43300) (read-out: MRSA-MBC), 125 µM; against E. faecalis (ATCC 29212) [2] it was 200 µM (≈ 101 µg/mL); with VREF (ATCC 51299) it was more than 127 µg/mL. The “MBC (kills bacteria)” value in the data set with E. faecalis (ATCC 29212) [2] worked out at 101.2 µg/mL (≈ 200 µM). Further, in “Solubility in DMSO”, the “solubility in DMSO (time to dissolve)” value was in the range of 30 to 40 min. In data set [3], the bacteriostatic/bactericidal activity entry is “show bacteriostatic and bactericidal activity”. Further, in [4], the “genotoxic concentration (not genotoxic up to / toxicity above)” value is given as “above 85 μM”. For the same molecule, the MIC (as a rule, the lowest concentration that inhibits growth of the organism) in data set [5] (24 h) is 15.8 µg/mL (≈ 31.2 µM); in [5] (90 h) it was 31.7 µg/mL (≈ 62.5 µM); in data set [6] (setting [14]), 63.3 µg/mL (≈ 125 µM); in [6] (setting [15]) it was 127 µg/mL (≈ 250 µM); in data set [6] (setting [16]), more than 127 µg/mL; in the data set with S. aureus (ATCC 29213) [7] (time not given), 50.6 µg/mL. Besides, the MIC in the data set on E. faecalis (ATCC 29212) [8] was determined as 50.6 µg/mL (≈ 99.9 µM). In addition, the “MIC (bacterial growth inhibition)” value (in the data set on E. coli (ATCC 25922); in data set [9]) was “no inhibition was observed” each time. For the same molecule, the “higher efficacy than harmaline” value in the data set on S. aureus (ATCC 29213) [7] is approximately 15 fold. The “higher antibacterial activity than harmaline dimer without a substitution (GZ440/6)” value in the data set with S. aureus (ATCC 29213) [7] was 1.75 fold.

As to `COc1ccc2c3c([nH]c2c1)C(CC(CC1=NCCc2c1[nH]c1cc(OC)ccc21)c1cccnc1)=NCC3` [GK517.3, 1,1′-(2-(pyridin-3-yl)propane-1,3-diyl)bis(7-methoxy-4,9-dihydro-3H-pyrido[3,4-b]indole)], the MBC was determined as 104 µg/mL in the data set on S. aureus (ATCC 29213) [1] (setting [12]); 200 µM with S. aureus (ATCC 29213) [1] (setting [13]); 32.4 µg/mL in the data set with MRSA (ATCC 43300) (read-out: MBC); 62.5 µM in the data set with MRSA (ATCC 43300) (read-out: MRSA-MBC); 200 µM (≈ 104 µg/mL) with E. faecalis (ATCC 29212) [2]; 64.7 µg/mL (≈ 125 µM) with VREF (ATCC 51299). In the data set on E. faecalis (ATCC 29212) [2], the “MBC (kills bacteria)” value worked out at 103.5 µg/mL (≈ 200 µM). The “solubility in DMSO (time to dissolve)” value in the data set “Solubility in DMSO” was in the range of 10 to 15 min. The bacteriostatic/bactericidal activity entry in [3] was “show bacteriostatic and bactericidal activity”. Also, the MIC in data set [5] (24 h) is 8 µg/mL (≈ 15.5 µM); in [5] (90 h) it was 16.2 µg/mL (≈ 31.3 µM); in data set [6] (setting [14]) it was 32.4 µg/mL (≈ 62.5 µM); in data set [6] (ATCC51299, 90 h, read-out: MIC (bacterial growth inhibition)) it was 64.7 µg/mL (≈ 125 µM); in the data set on S. aureus (ATCC 29213) [7] (time not given), 51.7 µg/mL; in the data set on E. faecalis (ATCC 29212) [8], 51.7 µg/mL (≈ 99.9 µM). Further, the “MIC (bacterial growth inhibition)” value (in the data set with E. coli (ATCC 25922); in data set [9]) was “no inhibition was observed” throughout. Besides, the “higher efficacy than harmaline” value with S. aureus (ATCC 29213) [7] was approximately 15 fold. Further, the “higher antibacterial activity than harmaline dimer without a substitution (GZ440/6)” value in the data set with S. aureus (ATCC 29213) [7] is on record as 1.75 fold.

As for `COc1ccc2c3c([nH]c2c1)C(CC(CC1=NCCc2c1[nH]c1cc(OC)ccc21)c1cncs1)=NCC3` [GK524], the MBC with S. aureus (ATCC 29213) [1] (setting [12]) turned out to be 65.5 µg/mL; in the data set on S. aureus (ATCC 29213) [1] (setting [13]), 125 µM; with MRSA (ATCC 43300) (read-out: MBC), 32.7 µg/mL; in the data set with MRSA (ATCC 43300) (read-out: MRSA-MBC) it was 62.5 µM. The MIC is 12.2 µg/mL (≈ 23.4 µM) in data set [10] (after 24 hours of incubation), 25 µg/mL (≈ 47.7 µM) in data set [10] (after 48 hours of incubation), 16.4 µg/mL (≈ 31.2 µM) in data set [5] and 32.7 µg/mL in the data set with S. aureus (ATCC 29213) [7] (time not given). Further, in the data set “Solubility in DMSO”, the “solubility in DMSO (time to dissolve)” value was “instantly”. Also, the bacteriostatic/bactericidal activity entry in [3] was “show bacteriostatic and bactericidal activity”. Besides, in the data set with E. coli (ATCC 25922), the “MIC (bacterial growth inhibition)” value was “No bacteriostatic or bactericidal activities were observed”. The “higher efficacy than harmaline” value with S. aureus (ATCC 29213) [7] is approximately 15 fold. In addition, the “higher antibacterial activity than harmaline dimer without a substitution (GZ440/6)” value in the data set with S. aureus (ATCC 29213) [7] came to 1.75 fold.

`COc1ccc2c3c([nH]c2c1)C(CCCC1=NCCc2c1[nH]c1cc(OC)ccc21)=NCC3` [GZ440/6]: the minimal bactericidal concentration (MBC) with MRSA (ATCC 43300) (read-out: MBC) amounted to 110 µg/mL; in the data set with MRSA (ATCC 43300) (read-out: MRSA-MBC), 250 µM. Moreover, the “MBC (bactericidal activity)” value in the data set on VREF (ATCC 51299) is reported as “No bactericidal action was observed”. Besides, the “inhibition of plaque formation” value in [11] (2.0, 5.0 and 10.0 μM, CoV-2 in Vero-E6 cells at 120 h after infection) is “negligible inhibition”; in [11] (at 20 μM and above), “inhibition of plaque formation was significant”. In addition, the “viral load (viral RNA levels)” value in the data set on SARS-CoV-2 (higher concentrations (20 and 40 μM)) is on record as “decreased viral load”; with SARS-CoV-2 (lower concentrations), “not in lower concentrations”. Further, the bacteriostatic/bactericidal activity entry in [3] was “show bacteriostatic and bactericidal activity”. Moreover, the MIC in [5] (24 h) is 27.5 µg/mL (≈ 62.5 µM); in [5] (90 h) it was 55 µg/mL (≈ 125 µM); in [6] (setting [14]) it was 55 µg/mL (≈ 125 µM); in data set [6] (setting [15]), 110 µg/mL (≈ 250 µM); in data set [6] (setting [16]), more than 110 µg/mL; with S. aureus (ATCC 29213) [7], 200 µM. Besides, the MIC is 88 µg/mL in the data set on S. aureus (ATCC 29213) [7] (time not given); 88 µg/mL and 200 µM in the data set with E. faecalis (ATCC 29212) [8]. Further, the cytotoxicity result in the data set with Vero-E6 cells (20 μM and 40 μM) is recorded as “no significant cytotoxicity”; in the data set with Vero-E6 cells (Vero-E6 cells, 2.0 μM, 5.0 μM and 10.0 μM), “negligible cytotoxicity”.

For the origin of these results see patent publication US20240002405A1, “ANTIMICROBIAL COMPOUNDS, SYNTHESIS METHODS, AND USES THEREOF” (Ankh Life Sciences Limited, priority 2022, published 2024).
